Assay results reported in patent US11091447B2, “UBE2K modulators and methods for their use” (Berg LLC, priority 2020, dated 2021).

Test system: MIA PaCa-2 cells
Experiment: Cellular viability assay (Cell Titer Fluor)
Type: cell-based
Conditions: 72 hours incubation
Protocol: Cell viability were performed using the Cell Titer Fluor™ Assays (Promega G6080). MIA PaCa-2 cells are grown in DMEM media with 10% FBS, 1% Pen/Strep/Amphotericin B. Cells are trypsinized and counted using the Nexcelom cellometer. 5,000 cells/100 μl are plated per well in Greiner black/clear 96-well plates. Cells should be within 10 passages of stock vial for use in workflow. Three distinct lineages of these cells are cultured in parallel for multiple passages and 5 full plates of each lineage are seeded for one run. Small molecule compounds are provided as 100 mM stock solutions in DMSO. Dilution series plates are prepared using 1:3 dilution to achieve a 7 point concentration on a half log scale. After addition of compounds, cells are incubated 37° C., 5% CO2 for 72 hours.
For each test compound condition, triplicate technical replicates are used. For each reference compound, duplicate technical replicates are used. At the end of the 72-hour incubation, spent media is discarded. Then, 100 μl of GF-AFC diluted in DMEM (serum and phenol red-free) is added at 1:2000 concentration (5 μl/10 ml). Cells are incubated with reaction buffer for 1 h at 37° C. Fluorescence is then read on the plate reader with excitation wavelength of 390 nm and emission wavelength of 505 nm. All raw data are analyzed on Microsoft Excel 2010 and normalized to the DMSO vehicle control. Relative results are copied into GraphPad Prism for non-linear regression analysis and determination of IC50 and other dose curve parameters (min, max, Hill slope, etc.) using the log (inhibitor) vs. response equation. Values are as follows: A represents an IC50 of <[…], B represents an IC50 of 1 mM to 10 mM, C represents an IC50 of >10 mM.

Row | SMILES | IC50 (Homo sapiens, MIA PaCa-2, 72 h) | IC50
1 | COc1cnccc1-c1cc(CNC(=O)c2ccccc2OC(F)(F)F)n[nH]1 [Compound 37] | > 10 µM | 
2 | COc1ccccc1-c1nc(C2(NC(=O)c3ccccc3OC(F)F)CC2)n[nH]1 [Compound 118, 2-(difluoromethoxy)-N-(1-(5-(2-methoxyphenyl)-1H-1,2,4-triazol-3-yl)cyclopropyl) benzamide] | 1 to 10 µM | 
3 | O=C(NCc1n[nH]c(-c2cccs2)n1)c1nccnc1N1CCC(F)(F)CC1 [Compound 89] | > 10 µM | 
4 | O=C(NCc1cc(-c2cccs2)[nH]n1)c1cc(O)ccc1N1CCCC(F)(F)C1 [Compound 81] | 1 to 10 µM | 
5 | COc1ccc(-c2cc(CNC(=O)c3ccccc3OC(F)(F)F)n[nH]2)c(OC)c1 [Compound 117] | > 10 µM | 
6 | Cc1cccc(C(=O)NCc2cc(-c3cccs3)[nH]n2)c1N1CCC(F)(F)C1 [Compound 97] | 1 to 10 µM | 
7 | O=C(NCc1cc(-c2cccs2)[nH]n1)c1ccccc1N1CCOCC1 [Compound 69] | < 1 µM | 
8 | O=C(NCc1cc(-c2cccc(O)c2O)[nH]n1)c1ccccc1OC(F)(F)F [Compound 43] | > 10 µM | 
9 | Cc1ccc(N2CCCC(F)(F)C2)c(C(=O)NCc2cc(-c3cccs3)[nH]n2)c1 [Compound 96] | < 1 µM | 
10 | COc1ccccc1-c1cc(CNC(=O)c2cc(F)ccc2N2CCCC2)n[nH]1 [Compound 104] | < 1 µM | 
11 | O=C(NCc1n[nH]c(-c2cccs2)n1)c1ccccc1NCC(F)F [Compound 73] | > 10 µM | 
12 | COc1ccccc1-c1cc(CNC(=O)c2ccccc2N2CCCC2)n[nH]1 [Compound 105] | < 1 µM | 
13 | COc1ccc(F)cc1-c1cc(CNC(=O)c2cc(F)ccc2N2CCCCC2)n[nH]1 [Compound 110] | < 1 µM | 
14 | O=C(NCc1n[nH]c(-c2cc(O)ccc2O)n1)c1ccccc1OC(F)F [Compound 64] | 1 to 10 µM | 
15 | O=C(NCc1cc(-c2cccs2)[nH]n1)c1cc(F)ccc1N1CCCCC1 [Compound 80, 5-fluoro-2-(piperidin-1-yl)-N-((5-(thiophen-2-yl)-1H-pyrazol-3-yl)methyl) benzamide] | < 1 µM | 
16 | COc1ccc(OC)c(-c2cc(CNC(=O)c3ccccc3OC(F)(F)F)n[nH]2)c1 [Compound 39] | > 10 µM | 
17 | COc1ccncc1-c1cc(CNC(=O)c2ccccc2OC(F)(F)F)n[nH]1 [Compound 33] | 1 to 10 µM | 
18 | COc1ccsc1-c1cc(CNC(=O)c2ccccc2OC(F)(F)F)n[nH]1 [Compound 36] | < 1 µM | 
19 | O=C(NCc1cc(-c2cccs2)[nH]n1)c1ccccc1OC(F)(F)F [Compound 5] | > 10 µM | 
20 | COc1ccccc1-c1cc(S(=O)(=O)NC(=O)c2ccccc2OC(F)F)n[nH]1 [Compound 121, 2-(difluoromethoxy)-N-((5-(2-methoxyphenyl)-1H-pyrazol-3-yl)sulfonyl) benzamide] | > 10 µM | 

Row | SMILES | IC50 (Homo sapiens, MIA PaCa-2, 72 h) | IC50
21 | COc1ccc(F)cc1-c1nc(CNC(=O)c2cnccc2OC(F)F)n[nH]1 [Compound 147] | 1 to 10 µM | 
22 | Cc1cscc1-c1cc(CNC(=O)c2ccccc2OC(F)(F)F)n[nH]1 [Compound 16, N-((5-(4-methylthiophen-3-yl)-1H-pyrazol-3-yl)methyl)-2-(trifluoromethoxy) benzamide] | > 10 µM | 
23 | COc1c(F)cc(F)cc1-c1cc(CNC(=O)c2ccccc2OC(F)(F)F)n[nH]1 [Compound 49] | 1 to 10 µM | 
24 | O=C(NCc1cc(-c2cccs2)[nH]n1)c1ccccc1N1CCCCC1 [Compound 68] | < 1 µM | 
25 | O=C(NCc1cc(-c2cc(F)ccc2O)[nH]n1)c1ccccc1OC(F)(F)F [Compound 52] |  | > 10 µM
26 | O=C(NCc1cc(-c2cccs2)[nH]n1)c1cc(C(F)(F)F)ccc1N1CCCC(F)(F)C1 [Compound 78] | < 1 µM | 
27 | O=C(NCc1cc(-c2cccs2)[nH]n1)c1ccccc1N1CCS(=O)(=O)CC1 [Compound 70] | > 10 µM | 
28 | CCOc1ccc(F)cc1-c1cc(CNC(=O)c2cc(F)ccc2N2CCCCC2)n[nH]1 [Compound 99] | < 1 µM | 
29 | COc1ccc(C(F)(F)F)cc1-c1cc(CNC(=O)c2ccccc2OC(F)(F)F)n[nH]1 [Compound 20] | > 10 µM | 
30 | COc1ccccc1-c1nc(CNC(=O)c2cnccc2OC(F)F)n[nH]1 [Compound 148] | 1 to 10 µM | 
31 | CCOc1ccccc1-c1nc(CNC(=O)c2ccccc2OC(F)F)n[nH]1 [Compound 58] | < 1 µM | 
32 | COc1ccc(Cl)cc1-c1cc(CNC(=O)c2ccccc2OC(F)(F)F)n[nH]1 [Compound 48] | 1 to 10 µM | 
33 | O=C(NCc1cc(-c2cccc3cn[nH]c23)[nH]n1)c1ccccc1OC(F)(F)F [Compound 29] | > 10 µM | 
34 | O=C(NCc1n[nH]c(-c2cccs2)n1)c1nccnc1N1CC(F)(F)C1 [Compound 86] | > 10 µM | 
35 | COc1ccc(F)cc1-c1nc(CNC(=O)c2cc(C#N)ccc2OC(F)F)n[nH]1 [Compound 139] | < 1 µM | 
36 | COc1ccc(F)cc1-c1nc(CNC(=O)c2cccc(F)c2OC(F)F)n[nH]1 [Compound 135, 2-(difluoromethoxy)-3-fluoro-N-((5-(5-fluoro-2-methoxyphenyl)-1H-1,2,4-triazol-3-yl)methyl) benzamide] | < 1 µM | 
37 | CCOc1ccc(Br)cc1-c1nc(CNC(=O)c2ccccc2OC(F)F)n[nH]1 [Compound 59] | > 10 µM | 
38 | COc1ccccc1-c1cc(S(=O)(=O)NC(=O)c2ccccc2OC(F)(F)F)n[nH]1 [Compound 122, N-[[5-(2-methoxyphenyl)-1H-pyrazol-3-yl]sulfonyl]-2-(trifluoromethoxy)benzamide] | > 10 µM | 
39 | O=C(NCc1cc(-c2cccs2)[nH]n1)c1ccc(O)cc1C(F)(F)F [Compound 13] | > 10 µM | 
40 | COc1ccccc1-c1nc(CNC(=O)c2ccc3c(c2)OC(F)(F)O3)n[nH]1 [Compound 120] | 1 to 10 µM | 

Row | SMILES | IC50 (Homo sapiens, MIA PaCa-2, 72 h) | IC50
41 | CCOc1ccccc1-c1nc(CNC(=O)c2ccccc2OC(F)(F)F)n[nH]1 [Compound 57] | < 1 µM | 
42 | O=C(NCc1cc(-c2cccs2)[nH]n1)c1ccccc1N1CCCCCC1 [Compound 103] | < 1 µM | 
43 | O=C(NCc1n[nH]c(-c2cccs2)n1)c1ccccc1N1CCC(F)(F)CC1 [Compound 76, 2-(4,4-difluoropiperidin-1-yl)-N-((5-(thiophen-2-yl)-1H-1,2,4-triazol-3-yl)methyl) benzamide] | 1 to 10 µM | 
44 | O=C(NCc1cc(-c2cccs2)[nH]n1)c1cc(C(F)(F)F)ccc1N1CCCC1 [Compound 83] | 1 to 10 µM | 
45 | Cc1cn[nH]c1-c1cc(CNC(=O)c2ccccc2OC(F)(F)F)n[nH]1 [Compound 24] | > 10 µM | 
46 | O=C(NCc1cc(-c2cc(F)ccc2O)[nH]n1)c1cc(F)ccc1N1CCCCC1 [Compound 91] | < 1 µM | 
47 | COc1ccc(F)cc1-c1cc(CNC(=O)c2ccccc2OC(F)(F)F)n[nH]1 [Compound 51] | < 1 µM | 
48 | CC(C)Oc1ccc(F)cc1-c1cc(CNC(=O)c2ccccc2OC(F)(F)F)n[nH]1 [Compound 116] | > 10 µM | 
49 | COc1ccccc1-c1nc(S(=O)(=O)NC(=O)c2ccccc2OC(F)(F)F)n[nH]1 [Compound 123, N-((5-(2-methoxyphenyl)-1H-1,2,4-triazol-3-yl)sulfonyl)-2-(trifluoromethoxy) benzamide] | 1 to 10 µM | 
50 | COc1ccccc1-c1cc(CNC(=O)c2ccccc2OC(F)(F)F)n[nH]1 [Compound 31] | < 1 µM | 
51 | COc1c(O)cccc1-c1nc(CNC(=O)c2ccccc2OC(F)F)n[nH]1 [Compound 62, 2-(difluoromethoxy)-N-((5-(3-hydroxy-2-methoxyphenyl)-1H-1,2,4-triazol-3-yl)methyl) benzamide] | 1 to 10 µM | 
52 | O=C(NCc1n[nH]c(-c2cccs2)n1)c1ccccc1OC(F)(F)F [Compound 14] | > 10 µM | 
53 | O=C(NCc1n[nH]c(-c2cccs2)n1)c1ccccc1CC(F)(F)F [Compound 8] | > 10 µM | 
54 | O=C(NCc1cc(-c2cccs2)[nH]n1)c1cc(F)ccc1N1CCCC1 [Compound 94] | < 1 µM | 
55 | CCOc1ccc(F)cc1-c1cc(CNC(=O)c2ccccc2OC(F)(F)F)n[nH]1 [Compound 44] | 1 to 10 µM | 
56 | COc1ccc(F)cc1-c1nc(CNC(=O)c2ccccc2OC(F)F)n[nH]1 [Compound 128] | < 1 µM | 
57 | O=C(NCc1cc(-c2ccn[nH]2)[nH]n1)c1ccccc1OC(F)(F)F [Compound 25] | > 10 µM | 
58 | COc1ccc(F)cc1-c1nc(CNC(=O)c2cc(F)ccc2OC(F)F)n[nH]1 [Comp 137] | < 1 µM | 
59 | Cc1sccc1-c1cc(CNC(=O)c2ccccc2OC(F)(F)F)n[nH]1 [Compound 17] | > 10 µM | 
